Results on nine compounds are retold here after ChEMBL document CHEMBL1148845, “Chiral tetrahydroquinoline derivatives as potent anti-hyperalgesic agents in animal models of sustained inflammation and chronic neuropathic pain” (Bioorg Med Chem Lett, 2007).

What is called ED50 is the dose at which the effect has come halfway, by size or by number of responders. For orientation: bioavailability means dose-corrected exposure relative to a reference, in per cent. For orientation: half-life means how long it takes for the measured level to halve.

Series [1] relates to Mus musculus. In words: Antinociceptive effect in po dosed mouse assessed as reduction of licking time in late phase by formalin test. Type of series: functional.
Series [2] is filed under the species Rattus norvegicus. In words: Inhibition of windup in rat spinal cord at 10 uM. Type of series: functional, organism-based.
In series [3] the test system is Rattus norvegicus. Nature of the series: Analgesic effect in po dosed CCI rat model assessed as reduction of thermal hyperalgesia after 1 hr. The class given is functional.
Series [4] addresses Glutamate NMDA receptor. In words: Displacement of [3H]glycine from NMDA receptor in rat cerebral cortex membrane. Type of series: cell membranes.
Series [5] relates to Mus musculus. In words: Antinociceptive effect in mouse assessed as reduction of licking time in late phase administered at 0.1 mg/kg, ip before 10 mins of formalin administration. Type of series: functional. More on the design: scale not given: the % may be the effect or the level left. The settings on record: route intraperitoneal.
The nature of series [6]: Plasma clearance in dog at 1 mg/kg, iv or 3 mg/kg, po. The class given is ADME, organism-based, Canis lupus familiaris.
The nature of series [7]: Oral bioavailability in rat at 3 mg/kg, po. Type of series: ADME, organism-based. The settings on record: in vivo.
Series [8] can be described thus: Oral bioavailability in dog at 3 mg/kg, po. Type of series: ADME, organism-based, Canis lupus familiaris. The note with it: in vivo.
Series [9] is described as follows: Half life in dog at 1 mg/kg, iv or 3 mg/kg, po. Type of series: ADME, organism-based, Canis lupus familiaris. The note with it: in vivo.
The nature of series [10]: Half life in rat at 1 mg/kg, iv or 3 mg/kg, po. The settings on record: in vivo. Type of series: ADME, organism-based.
Series [11] can be described thus: Plasma clearance in rat at 1 mg/kg, iv or 3 mg/kg, po. The class given is ADME, organism-based.
Series [12] concerns Mus musculus. Nature of the series: Antinociceptive effect in ip dosed mouse assessed as reduction of licking time in early phase administered before 30 mins of formalin administration. The settings on record: 0.5 h.
The subject of series [13] is Mus musculus. In words: Antinociceptive effect in ip dosed mouse assessed as reduction of licking time in late phase administered before 30 mins of formalin administration. The settings on record: 0.5 h.
A short description of series [14]: Oral bioavailability in rat. Type of series: ADME, organism-based. The settings on record: in vivo.

Calls of active or inactive are those of the source. The rule behind the calls is not given here.

On to `O=C([O-])[C@H]1C/C(=C2/CCN(c3ccccc3)C2=O)c2ccc(Cl)cc2N1.[Na+]`, for which the ED50 in series [1] and in [3] was 0.14 mg/kg in each case. Further, the outcome in [2] was Active.
As to `O=C([O-])C1C/C(=C2/CC(=O)N(c3ccccc3)C2=O)c2ccc(Cl)cc2N1.[Na+]` (stereo unspecified), the “Log Ki” value in series [4] is on record as -5.64.
On to `C[C@]12N[C@H](Cc3ccccc31)c1ccccc12` [DIZOCILPINE], for which, in [1], the ED50 was found to be 0.1 mg/kg. The Activity in series [5] was 50%.
For `O=C([O-])C1C/C(=C2/NC(=O)N(c3ccccc3)C2=O)c2ccc(Cl)cc2N1.[Na+]` (stereo unspecified), the “Log Ki” value in series [4] was -7.8.
Regarding `O=C([O-])c1[nH]c2cc(Cl)cc(Cl)c2c1/C=C1\CCN(c2ccccc2)C1=O.[Na+]`, the “Log Ki” value in series [4] is reported as -7.56. In addition, the results for the median effective dose (ED50) in series [1] and in [3] were 0.6 mg/kg and 2.95 mg/kg, respectively.
Consider `O=C(/C=C1\CC(C(=O)[O-])Nc2cc(Cl)ccc21)Nc1ccccc1.[Na+]` (stereo unspecified), for which the clearance in series [6] was 1.4 mL/min/kg; in [11] it was 3.5 mL/min/kg. Besides, the bioavailability in [7] is 85%; in series [8] it was 64%. Also, in series [4], the “Log Ki” value is -7.42. Further, the half-life in [9] was 2.4 h; in [10] it was 1.4 h.
`O=C([O-])C1C/C(=C2/CCCN(c3ccccc3)C2=O)c2ccc(Cl)cc2N1.[Na+]` (stereo unspecified): in series [4], the “Log Ki” value is reported as -5.71.
For the compound `CN1CC[C@]23c4c5ccc(O)c4O[C@H]2[C@@H](O)C=C[C@H]3[C@H]1C5` [MORPHINE], the ED50 in [12] stood at 0.73 mg/kg; in [13], 0.56 mg/kg.
`O=C([O-])C1C/C(=C2/CCN(c3ccccc3)C2=O)c2ccc(Cl)cc2N1.[Na+]` (stereo unspecified) gave a bioavailability in [14] of 76%.
